Source: article PMC8753592, “Long-acting capsid inhibitor protects macaques from repeat SHIV challenges” (Nature, 2021)
Where “and” joins values, the source holds several entries; their conditions need not be identical. Equal values may be shown once.

How the values were obtained:
[1] = tested on: HIV-1 IIIb strain; assay: High-density antiviral dose–response curves (Hill slope) against HIV-1 IIIb in MT-4 cells; type: cell-based
[2] = tested on: SHIV-SF162P3; assay: Repeated escalating-dose rectal SHIV challenge study (plasma viraemia by gag RT-qPCR); type: in vivo, rhesus macaques of Indian origin; conditions: for Proportion of animals protected: 15 weekly rectal challenges, follow-up to week 24; for First viremic timepoint: individual infected animals
Description: For the challenge study, 24 outbred rhesus macaques of Indian origin were assigned to the three study groups with even sex and weight distributions. All animals were housed at Alpha Genesis (Yemassee, SC), and all procedures were conducted in compliance with all relevant local, state and federal regulations and were approved by the Alpha Genesis IACUC. […] The injection sites were monitored daily by veterinary staff for 3 days. Beginning in week 1, animals in all three groups were challenged by the intrarectal route with 1 ml of RPMI containing the specified dilution of a 3.62 × 10^3 TCID50 SHIV-SF162P3 stock. At each respective time point, the challenges were performed on the same day, using the same virus stock and inoculation method across the three groups. Whole blood was collected and processed into plasma and PBMCs as necessary to assess routine haematology, clinical chemistry, viral load and serology as well as for bioanalysis of drug levels. The animals were considered to be protected if they remained SHIV negative by plasma PCR assay and seronegative by enzyme immunoassay throughout the 15-week challenge phase and the 9-week follow-up.
RNA was extracted from rhesus macaque plasma using a QIAcube high-throughput instrument and an IndiSpin QIAcube HT Pathogen kit (Qiagen). RNA standards using the SIV gag sequence were generated by AmpliCap-Max T7 High-Yield Message Maker kit (Cell Script) and were purified using an RNA Clean and Concentrator kit (Zymo Research). Log dilutions of the RNA were included with each RT–qPCR assay. Reverse transcription of standards and samples was performed using a Superscript III VILO kit (Invitrogen). qPCR was performed using forward primer 5′-[…]-3′, reverse primer 5′-[…]-3′ and fluorescently labelled primer 5′-[…]-3′ on a Quantstudio 6 Flex system (Applied Biosystems). The assay LOD was 200 copies gag per ml.
Protection against acquired infection was analysed using Cox proportional hazard regression models based on the exact partial likelihood for discrete time expressed in weeks, which explicitly accounts for the time-varying viral challenge dose in the model. The hazard ratios with 95% confidence intervals for per-exposure relative reductions in acquisition risk were calculated for the GS-CA1-treated groups, and the results were compared with those for the vehicle-treated control group. Comparisons were considered statistically significant at a two-sided alpha level of 0.05 (P < 0.05). Statistical analyses were performed using GraphPad Prism version 8.1.2, SAS version 9.4 and R Studio software version 4.0.5.

[3] = tested on: HIV capsid; conditions: ref Yant et al, Nat.Med, 2019;[4]; cited from earlier work
[4] = tested on: SHIV envelope (Env) glycoprotein; assay: Env (gp140) ELISA seroconversion in challenged animals; type: in vivo, rhesus macaques; conditions: for First viremia to seroconversion interval / Seroconversion timepoint: individual infected animals
Description: Rhesus serum binding antibody titres against gp140 trimers were determined by ELISA. Ninety-six-well Maxisorp ELISA plates (Thermo Fisher Scientific) were coated overnight with 100 μl per well of 1 μg ml^−1 mosaic M gp140 protein in PBS and were then blocked for 2 h with blocker casein in PBS (Thermo Scientific). Macaque sera were added in threefold serial dilutions and were incubated for 1 h at room temperature. The plates were washed three times with PBS containing 0.05% Tween-20 and were then incubated for 1 h with a 1:1,000 dilution of a horseradish peroxidase (HRP)-conjugated goat anti-human secondary antibody (Jackson ImmunoResearch Laboratories). The plates were then washed three times with the above wash buffer and were developed using SureBlue tetramethylbenzidine (TMB) microwell peroxidase (KPL). Development was stopped by the addition of a stop solution (KPL), and the plates were then analysed at 450 nm with a Versamax ELISA microplate reader (Molecular Devices) using Softmax Pro 6.5.1 software. The ELISA endpoint titres were defined as the highest reciprocal serum dilution that yielded an OD450 nm absorbance of >0.2. Seroconversion occurred when the OD450 nm absorbance was greater than or equal to three times the value obtained at week 0 and the endpoint titre was greater than the assay LOD, which was 1:25.

[5] = molecular target: CA precursor (Gag polyprotein); conditions: ref Yant et al, Nat.Med, 2019;[4]; read-out: Binding Affinity (KD), CA precursor (Gag polyprotein); cited from earlier work

CC(C)(C#Cc1ccc(-c2ccc(Cl)c3c(NS(=O)(=O)C4CC4)nn(CC(F)F)c23)c([C@H](Cc2cc(F)cc(F)c2)NC(=O)Cn2nc(C(F)F)c3c2C(F)(F)[C@@H]2C[C@H]32)n1)S(C)(=O)=O [GS-CA1]
Hill slope (n) [1]: 3.03 ± 0.69 and 3.0 ± 0.7
Median weeks to viraemia (95% CI) ([2]; 150 mg/kg single s.c.): 16 weeks and 16 (11, –) weeks
study week until which no viraemia was detected in the group ([2]; 150 mg/kg single s.c.): 11 week
per-exposure risk reduction ([2]; 150 mg/kg single s.c. vs vehicle): 87%
Proportion of animals protected ([2]; 150 mg/kg single s.c.): 2/8
First viremic timepoint ([2]; 150 mg/kg): 16 study week and 13 study week and 11 study week and 14 study week and 17 study week
Median weeks to viraemia (95% CI) ([2]; 300 mg/kg single s.c.): Not reached (17, –)
study week until which no viraemia was detected in the group ([2]; 300 mg/kg single s.c.): 17 week
per-exposure risk reduction ([2]; 300 mg/kg single s.c. vs vehicle): 97%
Proportion of animals protected ([2]; 300 mg/kg single s.c.): 5/8
First viremic timepoint ([2]; 300 mg/kg): 17 study week
average plasma GS-CA1 at estimated mucosal infection ([2]; 2 weeks before first detectable viraemia, nine infected treated animals): 31.4 nM
plasma GS-CA1 at estimated mucosal infection as multiple of rhesus paEC95 ([2]; 2 weeks before first detectable viraemia, range 0.4–1.6): 1.0
Plasma SHIV viral load ([2]; GS-CA1 150mg/kg group, Week 1, individual animals): 200 gag RNA copies per ml
Plasma SHIV viral load ([2]; GS-CA1 150mg/kg group, Week 2, individual animals): 200 gag RNA copies per ml
Plasma SHIV viral load ([2]; GS-CA1 150mg/kg group, Week 3, individual animals): 200 gag RNA copies per ml
Plasma SHIV viral load ([2]; GS-CA1 150mg/kg group, Week 4, individual animals): 200 gag RNA copies per ml
Plasma SHIV viral load ([2]; GS-CA1 150mg/kg group, Week 5, individual animals): 200 gag RNA copies per ml
Plasma SHIV viral load ([2]; GS-CA1 150mg/kg group, Week 6, individual animals): 200 gag RNA copies per ml
Plasma SHIV viral load ([2]; GS-CA1 150mg/kg group, Week 7, individual animals): 200 gag RNA copies per ml
Plasma SHIV viral load ([2]; GS-CA1 150mg/kg group, Week 8, individual animals): 200 gag RNA copies per ml
Plasma SHIV viral load ([2]; GS-CA1 150mg/kg group, Week 9, individual animals): 200 gag RNA copies per ml
Plasma SHIV viral load ([2]; GS-CA1 150mg/kg group, Week 10, individual animals): 200 gag RNA copies per ml
Plasma SHIV viral load ([2]; GS-CA1 150mg/kg group, Week 11, individual animals, 150 mg/kg): 200 gag RNA copies per ml and 2317 gag RNA copies per ml
Plasma SHIV viral load ([2]; GS-CA1 150mg/kg group, Week 12, individual animals, 150 mg/kg): 200 gag RNA copies per ml and 1251253 gag RNA copies per ml
Plasma SHIV viral load ([2]; GS-CA1 150mg/kg group, Week 13, individual animals, 150 mg/kg): 200 gag RNA copies per ml and 4495324 gag RNA copies per ml and 15543 gag RNA copies per ml
Plasma SHIV viral load ([2]; GS-CA1 150mg/kg group, Week 14, individual animals, 150 mg/kg): 200 gag RNA copies per ml and 192698 gag RNA copies per ml and 302527 gag RNA copies per ml and 14481 gag RNA copies per ml
Plasma SHIV viral load ([2]; GS-CA1 150mg/kg group, Week 15, individual animals, 150 mg/kg): 200 gag RNA copies per ml and 1636073 gag RNA copies per ml and 41252 gag RNA copies per ml and 436449 gag RNA copies per ml
Plasma SHIV viral load ([2]; GS-CA1 150mg/kg group, Week 16, individual animals, 150 mg/kg): 43433 gag RNA copies per ml and 200 gag RNA copies per ml and 144532 gag RNA copies per ml and 37186 gag RNA copies per ml and 15508 gag RNA copies per ml and 62513 gag RNA copies per ml
Plasma SHIV viral load ([2]; GS-CA1 150mg/kg group, Week 17, individual animals, 150 mg/kg): 28104 gag RNA copies per ml and 200 gag RNA copies per ml and 128422 gag RNA copies per ml and 4020 gag RNA copies per ml and 5872 gag RNA copies per ml and 1974 gag RNA copies per ml and 76901 gag RNA copies per ml
Plasma SHIV viral load ([2]; GS-CA1 150mg/kg group, Week 18, individual animals, 150 mg/kg): 8535 gag RNA copies per ml and 200 gag RNA copies per ml and 144695 gag RNA copies per ml and 18625 gag RNA copies per ml and 13017 gag RNA copies per ml and 2250 gag RNA copies per ml and 14905 gag RNA copies per ml
Plasma SHIV viral load ([2]; GS-CA1 150mg/kg group, Week 19, individual animals, 150 mg/kg): 2197 gag RNA copies per ml and 200 gag RNA copies per ml and 23783 gag RNA copies per ml and 733 gag RNA copies per ml and 4607 gag RNA copies per ml and 1586 gag RNA copies per ml and 872 gag RNA copies per ml
Plasma SHIV viral load ([2]; GS-CA1 150mg/kg group, Week 20, individual animals, 150 mg/kg): 200 gag RNA copies per ml and 533 gag RNA copies per ml and 294 gag RNA copies per ml and 1229 gag RNA copies per ml
Plasma SHIV viral load ([2]; GS-CA1 150mg/kg group, Week 21, individual animals, 150 mg/kg): 200 gag RNA copies per ml and 8674 gag RNA copies per ml and 2199 gag RNA copies per ml
Plasma SHIV viral load ([2]; GS-CA1 150mg/kg group, Week 22, individual animals, 150 mg/kg): 200 gag RNA copies per ml and 2557 gag RNA copies per ml and 493 gag RNA copies per ml
Plasma SHIV viral load ([2]; GS-CA1 150mg/kg group, Week 23, individual animals, 150 mg/kg): 200 gag RNA copies per ml and 1150 gag RNA copies per ml and 1806 gag RNA copies per ml and 218 gag RNA copies per ml
Plasma SHIV viral load ([2]; GS-CA1 150mg/kg group, Week 24, individual animals, 150 mg/kg): 200 gag RNA copies per ml and 724 gag RNA copies per ml and 1367 gag RNA copies per ml
Plasma SHIV viral load ([2]; GS-CA1 300mg/kg group, Week 1, individual animals): 200 gag RNA copies per ml
Plasma SHIV viral load ([2]; GS-CA1 300mg/kg group, Week 2, individual animals): 200 gag RNA copies per ml
Plasma SHIV viral load ([2]; GS-CA1 300mg/kg group, Week 3, individual animals): 200 gag RNA copies per ml
Plasma SHIV viral load ([2]; GS-CA1 300mg/kg group, Week 4, individual animals): 200 gag RNA copies per ml
Plasma SHIV viral load ([2]; GS-CA1 300mg/kg group, Week 5, individual animals): 200 gag RNA copies per ml
Plasma SHIV viral load ([2]; GS-CA1 300mg/kg group, Week 6, individual animals): 200 gag RNA copies per ml
Plasma SHIV viral load ([2]; GS-CA1 300mg/kg group, Week 7, individual animals): 200 gag RNA copies per ml
Plasma SHIV viral load ([2]; GS-CA1 300mg/kg group, Week 8, individual animals): 200 gag RNA copies per ml
Plasma SHIV viral load ([2]; GS-CA1 300mg/kg group, Week 9, individual animals): 200 gag RNA copies per ml
Plasma SHIV viral load ([2]; GS-CA1 300mg/kg group, Week 10, individual animals): 200 gag RNA copies per ml
Plasma SHIV viral load ([2]; GS-CA1 300mg/kg group, Week 11, individual animals): 200 gag RNA copies per ml
Plasma SHIV viral load ([2]; GS-CA1 300mg/kg group, Week 12, individual animals): 200 gag RNA copies per ml
Plasma SHIV viral load ([2]; GS-CA1 300mg/kg group, Week 13, individual animals): 200 gag RNA copies per ml
Plasma SHIV viral load ([2]; GS-CA1 300mg/kg group, Week 14, individual animals): 200 gag RNA copies per ml
Plasma SHIV viral load ([2]; GS-CA1 300mg/kg group, Week 15, individual animals): 200 gag RNA copies per ml
Plasma SHIV viral load ([2]; GS-CA1 300mg/kg group, Week 16, individual animals): 200 gag RNA copies per ml
Plasma SHIV viral load ([2]; GS-CA1 300mg/kg group, Week 17, individual animals, 300 mg/kg): 9063 gag RNA copies per ml and 13193 gag RNA copies per ml and 200 gag RNA copies per ml and 13143 gag RNA copies per ml
Plasma SHIV viral load ([2]; GS-CA1 300mg/kg group, Week 18, individual animals, 300 mg/kg): 200 gag RNA copies per ml and 6116 gag RNA copies per ml and 1633235 gag RNA copies per ml
Plasma SHIV viral load ([2]; GS-CA1 300mg/kg group, Week 19, individual animals, 300 mg/kg): 200 gag RNA copies per ml and 123639 gag RNA copies per ml
Plasma SHIV viral load ([2]; GS-CA1 300mg/kg group, Week 20, individual animals, 300 mg/kg): 200 gag RNA copies per ml and 17958 gag RNA copies per ml
Plasma SHIV viral load ([2]; GS-CA1 300mg/kg group, Week 21, individual animals, 300 mg/kg): 200 gag RNA copies per ml
Plasma SHIV viral load ([2]; GS-CA1 300mg/kg group, Week 22, individual animals, 300 mg/kg): 200 gag RNA copies per ml
Plasma SHIV viral load ([2]; GS-CA1 300mg/kg group, Week 23, individual animals, 300 mg/kg): 200 gag RNA copies per ml
Plasma SHIV viral load ([2]; GS-CA1 300mg/kg group, Week 24, individual animals, 300 mg/kg): 200 gag RNA copies per ml
peak viral loads vs vehicle-treated control animals ([2]; infected GS-CA1-treated animals): significantly lower
Inhibits nuclear import (early-stage) [3]: Yes
Inhibits proper capsid assembly (late-stage) [3]: Yes
Inhibits virus production (late-stage) [3]: Yes
First viremia to seroconversion interval ([4]; 150 mg/kg): 1 weeks and 4 weeks and 5 weeks
Seroconversion timepoint ([4]; 150 mg/kg): 17 study week and 20 study week and 18 study week and 16 study week and 19 study week and 21 study week
First viremia to seroconversion interval ([4]; 300 mg/kg): 1 weeks and 3 weeks
Seroconversion timepoint ([4]; 300 mg/kg): 18 study week and 20 study week
median time to seroconversion from the onset of viraemia ([4]; all infected GS-CA1-treated animals, range 1 to 5 weeks): 4 weeks
Kd [5]: 2.4 nM
